Measured values reported in patent publication US10287272B2, “Substituted indazole compounds as RORgammaT inhibitors and uses thereof” (Merck Sharp & Dohme Corp., priority 2015, dated 2019).

Legend:
[1] = test system: murine collagen-induced arthritis model; experiment: Murine collagen-induced arthritis model; assay type: in vivo, mouse; settings: female DBA/1J mice, oral 3, 10 or 30 mg/kg twice daily; FIG. 4
Experimental: Female DBA/1J mice (Jackson Laboratories, 7-8 weeks old) were received and allowed to acclimate for about one week. On the day of immunization, an emulsion was freshly prepared by homogenizing equal volumes of Complete Freund's Adjuvant (CFA, Chondrex #7001) and a collagen type-2 solution (bovine source, Chondrex #20022) using a tissue homogenizer, on ice. A volume of 0.1 mL of this emulsion was injected subcutaneously into the base of the tail of each mouse, which was lightly anesthetized with isoflurane. Mice recovered from anesthesia were allowed food and water ad libitum.
Eighteen days after immunization, the mice were injected intraperitoneally with 40 μg of lipopolysaccaride (LPS, Sigma#L4005) in 0.2 mL saline, in order to help synchronize the disease progression in all animals. Seven days after LPS injection, the mice were assessed for knee joint swelling by measurement of each knee joint using digital calipers and computing total joint circumference. The total knee joint circumference of the 4 knee joints was then used to randomize mice into treatment groups of equal average circumference.
This dosing continued twice daily at 8- and 16-hour intervals for the duration of the study. As a positive control, one group of mice received 25 mg/kg Jak inhibitor (JAKi) tofacitinib once per day. Joints were measured 2-3 times per week.

[2] = biological target: VDR (Homo sapiens (Human), UniProt P11473); experiment: Nuclear hormone receptor selectivity assay (GAL4-NHR-LBD luciferase, HEK293); assay type: cell-based
Experimental: (§1) In the assay system used, an activated GAL4-nuclear hormone receptor (NHR) fusion construct binds to an upstream activation sequence (UAS) and drives a luciferase reporter gene. […]
(§2) HEK293 cells were transfected with GAL4-NHR-LBD construct (pcDNA3.1neo) and the pGL4.31 GAL4-luciferase reporter construct (Promega) and incubated overnight at 37° C. and 5% CO2. After 16-24 hours, cells were harvested and plated at 20 μL (10,000 cells)/well in tissue-culture treated 384 well plate. […] Next, plates are spun briefly and incubated overnight at 37° C. and 5% CO2. […] In agonist mode, test compound was incubated directly with the cells. For receptors that are not constitutively active, a known agonist is also tested as a positive control.
(§3) After 16-24 hours, luciferase activity was measured. Plates and luciferase reagent (e.g. One-Glo® or Dual Glo®; Promega, Madison, Wis.) were brought to room temperature. Next, a 25 μL aliquot of luciferase reagent was added to each well. Plates were spun down briefly and incubated at room temperature for 10 minutes. The luciferase signal was measured on an Envision plate reader (Perkin Elmer) set to the ultra-sensitive luminescence setting.

[3] = biological target: PXR (Homo sapiens (Human), UniProt O75469); experiment: as above; assay type: cell-based; settings: agonist mode
Experimental: as §1, §2, §3

[4] = biological target: RARγ (Homo sapiens (Human), UniProt P13631); experiment: as above; assay type: cell-based
Experimental: as §1, §2, §3

[5] = biological target: FXR (Homo sapiens (Human), UniProt Q96RI1); experiment: as above; assay type: cell-based
Experimental: as §1, §2, §3

[6] = biological target: CAR (Homo sapiens (Human), UniProt Q14994); experiment: as above; assay type: cell-based
Experimental: as §1, §2, §3

[7] = biological target: PPARα (Homo sapiens (Human), UniProt Q07869); experiment: as above; assay type: cell-based
Experimental: as §1, §2, §3

[8] = biological target: RARβ (Homo sapiens (Human), UniProt P10826); experiment: as above; assay type: cell-based
Experimental: as §1, §2, §3

[9] = biological target: LXRα (Homo sapiens (Human), UniProt Q13133); experiment: as above; assay type: cell-based
Experimental: as §1, §2, §3

[10] = biological target: RXRα (Homo sapiens (Human), UniProt P19793); experiment: as above; assay type: cell-based
Experimental: as §1, §2, §3

[11] = biological target: LXRβ (Homo sapiens (Human), UniProt P55055); experiment: as above; assay type: cell-based
Experimental: as §1, §2, §3

[12] = biological target: RORα (Homo sapiens (Human), UniProt P35398); experiment: as above; assay type: cell-based; settings: antagonist mode
Experimental: as §1, §2, §3

[13] = biological target: PPARβ (Homo sapiens (Human), UniProt Q03181); experiment: as above; assay type: cell-based
Experimental: as §1, §2, §3

[14] = biological target: TRα (Homo sapiens (Human), UniProt P10827); experiment: as above; assay type: cell-based
Experimental: as §1, §2, §3

[15] = biological target: TRβ (Homo sapiens (Human), UniProt P10828); experiment: as above; assay type: cell-based
Experimental: as §1, §2, §3

[16] = biological target: RORβ (Homo sapiens (Human), UniProt Q92753); experiment: as above; assay type: cell-based; settings: antagonist mode
Experimental: as §1, §2, §3

[17] = biological target: PPARγ (Homo sapiens (Human), UniProt P37231); experiment: as above; assay type: cell-based
Experimental: as §1, §2, §3

[18] = biological target: RARα (Homo sapiens (Human), UniProt P10276); experiment: as above; assay type: cell-based
Experimental: as §1, §2, §3

[19] = test system: BclxL gene expression in murine thymus; experiment: Murine thymic BclxL gene expression assay; assay type: in vivo, mouse; settings: female C57BL/6 mice, oral 0.1-30 mg/kg, thymus collected 2 hours after dosing, qPCR; FIG. 3
[20] = antagonist mode, reference agonist at EC80

FXR, sequence (Q96RI1 262-486, species assumed): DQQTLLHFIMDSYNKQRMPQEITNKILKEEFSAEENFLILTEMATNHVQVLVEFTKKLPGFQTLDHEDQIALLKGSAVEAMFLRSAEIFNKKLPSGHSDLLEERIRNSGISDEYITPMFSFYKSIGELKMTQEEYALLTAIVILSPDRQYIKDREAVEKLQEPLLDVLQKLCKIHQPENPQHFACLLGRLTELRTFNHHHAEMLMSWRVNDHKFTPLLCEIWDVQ
TRβ, sequence (P10828 217-461): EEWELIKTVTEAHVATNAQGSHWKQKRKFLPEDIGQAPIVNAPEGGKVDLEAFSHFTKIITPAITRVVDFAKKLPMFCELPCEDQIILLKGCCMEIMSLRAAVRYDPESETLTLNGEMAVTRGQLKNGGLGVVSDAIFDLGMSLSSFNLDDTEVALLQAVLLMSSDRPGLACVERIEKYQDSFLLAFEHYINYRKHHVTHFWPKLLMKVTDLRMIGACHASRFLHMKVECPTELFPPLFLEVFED
RXRα, sequence (P19793 227-458): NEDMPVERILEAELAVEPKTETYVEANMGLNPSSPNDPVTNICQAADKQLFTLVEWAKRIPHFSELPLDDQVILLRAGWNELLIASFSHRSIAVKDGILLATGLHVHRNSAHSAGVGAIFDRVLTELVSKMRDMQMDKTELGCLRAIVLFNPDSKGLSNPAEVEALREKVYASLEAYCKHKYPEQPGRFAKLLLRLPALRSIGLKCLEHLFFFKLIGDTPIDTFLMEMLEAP
LXRα, sequence (Q13133 209-447): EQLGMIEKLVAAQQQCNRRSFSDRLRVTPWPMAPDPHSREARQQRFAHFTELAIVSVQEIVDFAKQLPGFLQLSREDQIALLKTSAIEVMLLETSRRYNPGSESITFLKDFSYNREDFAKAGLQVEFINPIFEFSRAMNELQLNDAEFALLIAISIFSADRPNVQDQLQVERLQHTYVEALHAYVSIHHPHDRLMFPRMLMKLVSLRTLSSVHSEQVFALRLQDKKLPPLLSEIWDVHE
TRα, sequence (P10827 other isoform, or with tags, fused parts or gaps isoform P10827-2): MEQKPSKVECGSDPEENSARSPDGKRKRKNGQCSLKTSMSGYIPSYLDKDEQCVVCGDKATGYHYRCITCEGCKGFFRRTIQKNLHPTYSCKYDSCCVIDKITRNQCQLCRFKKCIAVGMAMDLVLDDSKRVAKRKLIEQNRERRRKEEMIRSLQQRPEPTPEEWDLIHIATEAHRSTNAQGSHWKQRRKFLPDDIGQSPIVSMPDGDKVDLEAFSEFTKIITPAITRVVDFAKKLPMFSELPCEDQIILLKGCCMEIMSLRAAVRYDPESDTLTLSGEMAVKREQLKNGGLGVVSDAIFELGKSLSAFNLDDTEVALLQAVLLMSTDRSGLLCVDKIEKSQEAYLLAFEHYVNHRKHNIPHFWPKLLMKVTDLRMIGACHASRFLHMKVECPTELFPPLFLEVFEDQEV
PPARβ, sequence (Q03181 211-439, species assumed): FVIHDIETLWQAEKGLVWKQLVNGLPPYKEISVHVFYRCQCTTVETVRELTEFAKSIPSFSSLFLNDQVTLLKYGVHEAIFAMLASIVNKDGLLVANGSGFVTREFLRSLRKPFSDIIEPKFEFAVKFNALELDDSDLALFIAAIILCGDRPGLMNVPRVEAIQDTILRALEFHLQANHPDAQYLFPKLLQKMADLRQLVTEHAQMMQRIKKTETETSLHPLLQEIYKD
PPARγ, sequence (P37231 238-503, species assumed): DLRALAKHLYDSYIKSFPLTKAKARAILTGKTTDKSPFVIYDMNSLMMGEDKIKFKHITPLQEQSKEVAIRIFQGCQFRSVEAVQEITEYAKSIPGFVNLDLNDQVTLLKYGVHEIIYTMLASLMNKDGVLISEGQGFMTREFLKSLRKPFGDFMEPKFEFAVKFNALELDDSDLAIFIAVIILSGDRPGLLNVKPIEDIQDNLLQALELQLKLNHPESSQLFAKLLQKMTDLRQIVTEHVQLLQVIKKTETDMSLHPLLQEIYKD
RARβ, sequence (P10826 183-417, species assumed): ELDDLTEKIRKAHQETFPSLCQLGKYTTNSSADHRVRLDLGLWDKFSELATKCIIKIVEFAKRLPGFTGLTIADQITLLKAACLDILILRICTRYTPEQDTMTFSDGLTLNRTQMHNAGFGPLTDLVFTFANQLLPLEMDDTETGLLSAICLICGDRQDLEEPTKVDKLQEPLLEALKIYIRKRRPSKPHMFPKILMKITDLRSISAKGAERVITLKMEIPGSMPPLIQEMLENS
VDR, sequence (P11473 127-423, species assumed): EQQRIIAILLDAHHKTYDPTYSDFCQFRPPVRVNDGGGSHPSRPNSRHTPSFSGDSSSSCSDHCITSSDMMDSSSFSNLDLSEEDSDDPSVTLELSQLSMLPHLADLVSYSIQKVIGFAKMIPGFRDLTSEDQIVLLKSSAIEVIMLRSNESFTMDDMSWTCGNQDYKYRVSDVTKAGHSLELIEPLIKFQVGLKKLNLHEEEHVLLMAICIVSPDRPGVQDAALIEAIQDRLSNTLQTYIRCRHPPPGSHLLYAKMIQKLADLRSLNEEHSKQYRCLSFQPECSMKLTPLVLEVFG
CAR, sequence (Q14994 109-352): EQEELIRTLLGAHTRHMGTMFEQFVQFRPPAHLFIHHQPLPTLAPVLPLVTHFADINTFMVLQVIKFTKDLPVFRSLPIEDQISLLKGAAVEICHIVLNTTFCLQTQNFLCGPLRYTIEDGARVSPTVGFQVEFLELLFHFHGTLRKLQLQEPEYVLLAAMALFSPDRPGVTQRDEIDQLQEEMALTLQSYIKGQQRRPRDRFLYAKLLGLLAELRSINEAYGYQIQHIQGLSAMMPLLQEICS
RARα, sequence (P10276 183-417, species assumed): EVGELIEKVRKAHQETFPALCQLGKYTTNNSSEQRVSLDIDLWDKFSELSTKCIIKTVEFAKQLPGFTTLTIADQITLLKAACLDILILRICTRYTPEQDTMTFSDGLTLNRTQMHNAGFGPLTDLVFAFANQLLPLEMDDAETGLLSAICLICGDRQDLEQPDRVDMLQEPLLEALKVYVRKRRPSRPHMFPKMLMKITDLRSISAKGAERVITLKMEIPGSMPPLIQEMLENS
LXRβ, sequence (P55055 222-460): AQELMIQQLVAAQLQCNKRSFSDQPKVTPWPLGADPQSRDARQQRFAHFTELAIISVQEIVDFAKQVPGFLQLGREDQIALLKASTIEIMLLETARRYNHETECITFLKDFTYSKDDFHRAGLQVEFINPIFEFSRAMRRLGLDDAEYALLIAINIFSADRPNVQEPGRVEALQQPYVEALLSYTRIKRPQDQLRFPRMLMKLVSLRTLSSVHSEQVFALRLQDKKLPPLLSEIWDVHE
RARγ, sequence (P13631 185-419, species assumed): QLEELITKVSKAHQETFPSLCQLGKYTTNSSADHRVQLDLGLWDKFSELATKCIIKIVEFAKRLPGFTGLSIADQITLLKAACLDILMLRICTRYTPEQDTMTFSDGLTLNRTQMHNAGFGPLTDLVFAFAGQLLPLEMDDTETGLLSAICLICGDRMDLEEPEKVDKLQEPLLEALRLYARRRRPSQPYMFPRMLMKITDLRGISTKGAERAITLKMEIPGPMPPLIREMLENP
PPARα, sequence (Q07869 239-466, species assumed): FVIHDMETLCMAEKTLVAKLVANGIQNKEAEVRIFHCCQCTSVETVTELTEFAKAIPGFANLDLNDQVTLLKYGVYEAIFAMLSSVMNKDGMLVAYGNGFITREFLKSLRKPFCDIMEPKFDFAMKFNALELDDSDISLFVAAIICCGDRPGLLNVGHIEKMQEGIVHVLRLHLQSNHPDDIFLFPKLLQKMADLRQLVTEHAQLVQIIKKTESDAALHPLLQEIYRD
RORβ, sequence (Q92753 222-460): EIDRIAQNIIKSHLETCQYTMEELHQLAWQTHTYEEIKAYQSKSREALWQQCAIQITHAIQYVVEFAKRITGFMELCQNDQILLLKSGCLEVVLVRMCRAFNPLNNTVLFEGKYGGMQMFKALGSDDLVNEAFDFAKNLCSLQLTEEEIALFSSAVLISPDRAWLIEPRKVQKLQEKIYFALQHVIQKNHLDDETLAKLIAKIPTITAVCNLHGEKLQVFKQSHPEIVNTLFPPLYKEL
RORα, sequence (P35398 272-510): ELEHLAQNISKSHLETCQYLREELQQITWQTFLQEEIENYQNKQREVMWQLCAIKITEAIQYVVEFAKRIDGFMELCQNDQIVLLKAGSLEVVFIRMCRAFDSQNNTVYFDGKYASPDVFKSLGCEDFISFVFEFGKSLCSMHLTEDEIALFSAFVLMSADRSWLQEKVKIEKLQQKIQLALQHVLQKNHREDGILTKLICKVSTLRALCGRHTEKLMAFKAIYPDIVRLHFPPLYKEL
PXR, sequence (O75469 146-433, species assumed): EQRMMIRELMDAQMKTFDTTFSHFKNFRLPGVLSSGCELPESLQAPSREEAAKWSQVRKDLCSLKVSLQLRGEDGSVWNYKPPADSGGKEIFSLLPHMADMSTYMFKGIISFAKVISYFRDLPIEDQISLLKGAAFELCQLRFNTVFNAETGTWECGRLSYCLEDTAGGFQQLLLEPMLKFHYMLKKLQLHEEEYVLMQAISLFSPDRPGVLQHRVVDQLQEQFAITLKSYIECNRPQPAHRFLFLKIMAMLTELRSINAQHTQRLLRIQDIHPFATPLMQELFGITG

EC50 ([2]; agonist mode): > 10 µM | IC50 [2, 20]: > 10 µM | EC50 [3]: 8.2 µM | EC50 ([4]; agonist mode): > 10 µM | IC50 [4, 20]: > 10 µM | EC50 ([5]; agonist mode): > 10 µM | IC50 [5, 20]: > 10 µM | EC50 ([6]; agonist mode): > 10 µM | IC50 [6, 20]: > 10 µM | EC50 ([7]; agonist mode): > 10 µM | IC50 [7, 20]: > 10 µM | EC50 ([8]; agonist mode): > 10 µM | IC50 [8, 20]: > 10 µM | EC50 ([9]; agonist mode): > 10 µM | IC50 [9, 20]: > 10 µM | EC50 ([10]; agonist mode): > 10 µM | IC50 [10, 20]: > 10 µM | EC50 ([11]; agonist mode): > 10 µM | IC50 [11, 20]: > 10 µM | IC50 [12]: > 10 µM | EC50 ([13]; agonist mode): > 10 µM | IC50 [13, 20]: > 10 µM | EC50 ([14]; agonist mode): > 10 µM | IC50 [14, 20]: 16 µM | EC50 ([15]; agonist mode): > 10 µM | IC50 [15, 20]: > 10 µM | IC50 [16]: > 10 µM | IC50 ([17]; PPARγ, antagonist mode, reference agonist at EC80): > 10 µM | EC50 ([17]; read-out: Agonist Mode EC50): 5.1 µM | EC50 ([18]; agonist mode): > 10 µM | IC50 [18, 20]: > 10 µM
Structure (SMILES): O=C(O)[C@@H]1CC=C(c2nn(C(=O)c3c(Cl)cccc3C3(C(F)(F)F)CC3)c3c2CC[C@@H](C(=O)N2CCC4(COC4)C2)C3)CC1 [Test Compound]
total joint circumference [1]: dose-dependent decrease in total joint circumference | expression of BclxL in murine thymus [19]: dose-dependent decrease in the expression of BclxL in murine thymus
